Assay results from patent US20040034045A1, “Inhibitors of thrombin induced platelet aggregation” (Parker Hughes Institute, priority 2000, published 2004).

Key:
[1] = system: thrombin-induced platelet aggregation; test: Thrombin-induced platelet aggregation (platelet aggregometer); assay type: cell-based, human
Description: Platelet-rich plasma (PRP) was purchased from the Memorial Blood Bank (Minneapolis, Minn.) and used according to the guidelines of the Parker Hughes Institute Human Subjects Committee. The PRP samples were treated with varying concentrations of WHI-P131 for 20 minutes at 37° C. Control PRP samples were treated with vehicle alone. The treated PRP samples were diluted 1:4 with sterile normal saline and platelets were stimulated with thrombin (0.1 U/mL, Chronolog Inc., Philadelphia, Pa.) under stirred conditions. Platelet aggregation was monitored in a platelet aggregometer (Model 560 Dual Chamber Instrument, Chronolog Inc., Philadelphia, Pa.) for 5 minutes. The IC50 values for WHI-P131-mediated inhibition of agonist-induced platelet aggregation were calculated by non-linear regression analysis using Graphpad Prism software version 2.0 (Graphpad Software, Inc., San Diego, Calif.).

[2] = system: collagen-induced platelet aggregation; test: Collagen-induced platelet aggregation; assay type: cell-based, human; settings: FIG. 7D
[3] = system: platelets; test: Serotonin release from thrombin-stimulated platelets; assay type: cell-based, human; settings: treated, N=4
Description: Release of serotonin from thrombin (0.1 U/mL)-stimulated platelets was measured using a serotonin detection kit (Immunotech, Marseille, France) according to the manufacturer's specifications. Sonnicated platelets were used for measurement of the total serotonin content of platelets.

[4] = system: mice; test: Tail bleeding time in mice; assay type: in vivo
Description: Mice (4-6 week old males, International Cancer Research (IRC)) were treated intravenously with 200 μL vehicle (PBS supplemented with 10% DMSO) or varying doses of WHI-P131 in […] vehicle. To evalulate bleeding and clotting times, treated mice were placed in a tube holder and tail bleeding was performed with a 2 mm cut from the protruding tail tip; the tail was placed vertically into 10 mL normal saline in a 37° C. water bath and bleeding times determined as previously described (Teng, et.al., 1997 Eur J Pharmacol 320(2-3), 161-6).

[5] = system: thromboplastin-induced thromboembolism; test: Thromboplastin-induced thromboembolism model; assay type: in vivo
Description: Mice (4-6 week old males, International Cancer Research (IRC)) were treated […] with 200 μL of vehicle (PBS supplemented with 10% DMSO), varying doses of WH-P131 in 200 μL of vehicle (administered intraperitoneally (i.p.) 30 minutes prior to the thromboplastin challenge). The mice were challenged with 25 mg/kg thromboplastin (Sigma, St. Louis, Mo.) via a bolus intravenous injection into the tail vein as previously described (Sato, et.al., 1998 Jpn J. Pharmacol 78(2), 191-7).
At the time of thromboembolism-related death after the thromboplastin injection or elective sacrifice at 48 hours using ketamine/xylazine, all mice were perfused with PBS followed by 4% phosphate buffered formalin. PBS and formalin were pumped through the left ventricle of the heart and allowed to exit through a 3 mm incision through the anterior wall of the right ventricle. During necropsy, several selected tissues (brain, heart, liver, lungs) were harvested, fixed in 10% neutral buffered formalin, dehydrated, and embedded in paraffin by routine methods for histopathologic examination. Glass slides with affixed 6 micron tissue sections were prepared and stained with hemotoxylin and eosin (H&E) or Masson's trichrome.

[6] = system: mice; test: Systemic toxicity in mice; assay type: in vivo
[7] = system: monkeys; test: Systemic toxicity in monkeys; assay type: in vivo; settings: dose levels 1 mg/kg to 100 mg/kg
[8] = Plasma concentration in mice; assay type: in vivo
[9] = target: T1, JAK3 (Homo sapiens, UniProt P52333); test: JAK3 inhibition (statement, no method)
T1 sequence (P52333 1-1124): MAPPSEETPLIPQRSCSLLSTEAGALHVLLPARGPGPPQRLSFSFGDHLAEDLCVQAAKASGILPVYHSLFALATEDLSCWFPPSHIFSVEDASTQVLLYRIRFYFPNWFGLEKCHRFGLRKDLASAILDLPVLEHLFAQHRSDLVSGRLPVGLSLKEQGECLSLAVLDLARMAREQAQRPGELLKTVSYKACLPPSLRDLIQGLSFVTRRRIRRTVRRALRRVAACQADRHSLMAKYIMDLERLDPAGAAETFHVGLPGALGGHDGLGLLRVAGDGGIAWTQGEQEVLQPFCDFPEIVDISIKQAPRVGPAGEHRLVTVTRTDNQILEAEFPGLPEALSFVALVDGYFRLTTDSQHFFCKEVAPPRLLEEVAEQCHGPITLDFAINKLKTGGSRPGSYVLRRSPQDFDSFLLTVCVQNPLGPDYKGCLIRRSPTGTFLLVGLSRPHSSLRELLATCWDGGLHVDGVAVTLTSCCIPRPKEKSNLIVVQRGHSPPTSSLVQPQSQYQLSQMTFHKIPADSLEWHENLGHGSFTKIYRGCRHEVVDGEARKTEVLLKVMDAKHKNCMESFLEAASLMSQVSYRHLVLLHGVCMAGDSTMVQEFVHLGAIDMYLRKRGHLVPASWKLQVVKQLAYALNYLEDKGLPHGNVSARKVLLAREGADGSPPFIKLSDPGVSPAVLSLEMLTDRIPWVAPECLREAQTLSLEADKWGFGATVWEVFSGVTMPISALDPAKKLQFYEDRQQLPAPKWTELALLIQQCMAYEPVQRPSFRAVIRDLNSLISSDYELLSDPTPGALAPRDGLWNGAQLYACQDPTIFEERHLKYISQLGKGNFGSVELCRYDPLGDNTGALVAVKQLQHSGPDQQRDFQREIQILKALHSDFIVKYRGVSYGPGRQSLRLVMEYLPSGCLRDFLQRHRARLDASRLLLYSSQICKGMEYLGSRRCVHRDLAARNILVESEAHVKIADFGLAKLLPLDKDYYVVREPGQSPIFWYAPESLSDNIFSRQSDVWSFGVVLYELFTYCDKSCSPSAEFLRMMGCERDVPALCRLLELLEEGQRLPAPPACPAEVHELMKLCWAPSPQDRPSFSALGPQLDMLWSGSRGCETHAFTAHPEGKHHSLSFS

| Structure (SMILES) | IC50 ([1]; Platelet, human platelets, pretreatment 30 minutes, thrombin 0.1 U/mL, average, read-out: IC50, inhibition of thrombin-induced platelet aggregation) [nM] | effect on collagen-induced platelet aggregation [2] | serotonin in platelet supernatants [3] [nM] | average tail bleeding time ([4]; 20 mg/kg, N=5) [min] | average tail bleeding time ([4]; 40 mg/kg, N=10) [min] | average tail bleeding time ([4]; 80 mg/kg, N=10) [min] | event-free survival outcome ([5]; mice, 25 mg/kg thromboplastin challenge) [%] | drug-related toxic lesions in organs (histopathology) ([5]; pretreated, thromboplastin-challenged mice) | survival and health status without thromboplastin challenge ([6]; 20 control mice, 80 mg/kg, 48 hour observation) | toxicity on systemic administration ([6]; mice, dose levels 1 mg/kg to 100 mg/kg) | toxicity on systemic administration [7] | plasma concentrations achieved without toxicity [8] [µM] | effect on thrombin-induced aggregation of platelets ([1]; even at 100 μM) | effect on thrombin induced platelet aggregation (aggregation curves) ([1]; thrombin 0.1 U/mL, FIG. 7B/7C) | JAK3 inhibition [9] |
| --- | --- | --- | --- | --- | --- | --- | --- | --- | --- | --- | --- | --- | --- | --- | --- |
| COc1cc2ncnc(Nc3ccc(O)cc3)c2cc1OC [WHI-P131, 4-(4′-Hydroxyphenyl)-amino-6,7-dimethoxyquinazoline] | 1500 | does not inhibit | 313 ± 19 | 9.4 ± 0.6 | > 10 | > 10 | 30±15 | No drug-related toxic lesions were detected | survived beyond the 48 hour observation period without any evidence of impaired health status or bleeding | not toxic | not toxic | ≥ 10 | – | – | – |
| COc1cc2ncnc(Nc3ccccc3)c2cc1OC [WHI-P258] | – | – | – | – | – | – | – | – | – | – | – | – | did not affect | had no effect | does not inhibit |
